Reference: PMC6857051, “Proliferative regulation of alveolar epithelial type 2 progenitor cells by human Scnn1d gene” (Theranostics, 2019)

Columns and labels:
Type in all cases: cell-based
[1] = target: ENaC activity in δ802-ENaC expressing mouse tracheal epithelial (MTE) monolayers; assay: Ussing chamber short-circuit current, δ-ENaC MTE monolayers (induced δ802Tg/Cre)
[2] = target: ENaC activity in mouse tracheal epithelial (MTE) monolayers, control; assay: Ussing chamber short-circuit current, control MTE monolayers (uninduced δ802Tg)
[3] = target: T1, human αβγ-ENaC (Homo sapiens, UniProt P37088+P51168+P51170); assay: Two-electrode voltage clamp of αβγ-ENaC expressed in Xenopus oocytes
T1 construct: expressed in transfected cells; host or cells: Xenopus laevis oocytes injected with cRNA (pGEM HE vector)
T1 sequence (P37088 1-669): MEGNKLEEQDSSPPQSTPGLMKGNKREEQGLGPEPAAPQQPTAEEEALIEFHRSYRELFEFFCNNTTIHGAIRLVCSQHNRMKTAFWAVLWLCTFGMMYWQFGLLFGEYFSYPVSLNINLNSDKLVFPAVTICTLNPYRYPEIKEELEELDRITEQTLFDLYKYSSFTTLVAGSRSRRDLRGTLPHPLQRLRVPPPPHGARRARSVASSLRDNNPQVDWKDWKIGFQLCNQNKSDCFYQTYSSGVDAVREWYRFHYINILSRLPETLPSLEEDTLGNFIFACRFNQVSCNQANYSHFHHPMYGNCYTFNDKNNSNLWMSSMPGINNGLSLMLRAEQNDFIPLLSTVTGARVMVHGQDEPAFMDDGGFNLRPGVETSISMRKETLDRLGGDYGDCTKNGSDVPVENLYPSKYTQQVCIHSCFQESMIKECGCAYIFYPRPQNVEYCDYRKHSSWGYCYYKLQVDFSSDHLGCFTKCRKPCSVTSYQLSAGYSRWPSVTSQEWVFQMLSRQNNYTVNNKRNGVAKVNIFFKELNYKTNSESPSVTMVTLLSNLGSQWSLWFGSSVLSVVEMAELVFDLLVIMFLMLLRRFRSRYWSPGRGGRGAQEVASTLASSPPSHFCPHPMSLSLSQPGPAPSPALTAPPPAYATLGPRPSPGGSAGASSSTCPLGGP
T1 sequence (P51168 1-640): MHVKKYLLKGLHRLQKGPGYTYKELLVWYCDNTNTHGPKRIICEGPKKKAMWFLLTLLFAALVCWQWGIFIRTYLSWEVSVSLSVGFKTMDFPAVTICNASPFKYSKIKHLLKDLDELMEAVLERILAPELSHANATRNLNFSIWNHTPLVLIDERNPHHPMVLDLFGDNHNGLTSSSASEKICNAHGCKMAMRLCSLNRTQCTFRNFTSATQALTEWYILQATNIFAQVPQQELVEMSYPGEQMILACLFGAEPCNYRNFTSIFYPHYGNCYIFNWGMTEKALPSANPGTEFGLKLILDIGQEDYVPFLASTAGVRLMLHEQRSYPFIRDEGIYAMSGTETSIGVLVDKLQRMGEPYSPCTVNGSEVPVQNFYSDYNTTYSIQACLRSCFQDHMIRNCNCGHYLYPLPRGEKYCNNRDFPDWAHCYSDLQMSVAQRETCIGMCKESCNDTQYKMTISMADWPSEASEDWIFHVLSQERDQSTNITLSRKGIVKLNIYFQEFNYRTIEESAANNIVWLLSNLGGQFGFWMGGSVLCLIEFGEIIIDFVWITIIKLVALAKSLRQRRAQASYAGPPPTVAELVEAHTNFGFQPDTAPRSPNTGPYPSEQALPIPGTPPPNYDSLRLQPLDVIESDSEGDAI
T1 sequence (P51170 1-649): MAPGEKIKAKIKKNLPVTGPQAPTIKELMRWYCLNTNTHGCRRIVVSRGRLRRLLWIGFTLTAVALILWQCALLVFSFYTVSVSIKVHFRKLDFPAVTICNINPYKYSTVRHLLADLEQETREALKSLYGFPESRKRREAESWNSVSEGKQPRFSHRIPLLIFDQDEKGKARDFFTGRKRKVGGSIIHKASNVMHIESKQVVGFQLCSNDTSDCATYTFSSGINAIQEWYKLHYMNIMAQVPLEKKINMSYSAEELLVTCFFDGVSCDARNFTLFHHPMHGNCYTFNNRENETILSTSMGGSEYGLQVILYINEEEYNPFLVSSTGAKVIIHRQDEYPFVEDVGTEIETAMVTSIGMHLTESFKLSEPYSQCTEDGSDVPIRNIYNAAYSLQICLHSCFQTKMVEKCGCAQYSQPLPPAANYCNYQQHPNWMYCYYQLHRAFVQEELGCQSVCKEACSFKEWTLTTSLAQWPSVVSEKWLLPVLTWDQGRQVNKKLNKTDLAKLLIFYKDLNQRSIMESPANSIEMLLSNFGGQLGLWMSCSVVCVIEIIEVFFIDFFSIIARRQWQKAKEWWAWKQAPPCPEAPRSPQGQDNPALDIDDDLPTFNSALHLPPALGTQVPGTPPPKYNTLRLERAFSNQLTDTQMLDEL
Protocol: Cloning, in vitro transcription, and heterologous expression of δ802 ENaC and two-electrode voltage clamping assay. δ802 and other ENaC subunits were generated in human ENaC cDNAs cloned into a pGEM HE vector [4], [76]. cRNAs of human α, β, and γ ENaC were prepared as described previously. The stoichiometry of native ENaC complexes is unclear to date. Based on the studies in the last decade, several models have been proposed for αβγ ENaC channels: 1α1β1γ, 2α1β1γ, 3α3β3γ. Based on the EM structure of human αβγ ENaC [35], the currently acceptable model of human αβγ ENaC complexes is heterotrimeric (1α1β1γ). Thus we microinjected δ802:β:γ in a 1:1:1 subunit ratio. Oocytes were surgically removed from appropriately anesthetized adult female Xenopus laevis (Xenopus Express). Briefly, the ovarian tissue was removed from the frog under anesthesia by tricaine-S (Western Chemicals) through a small incision in the lower abdomen. Ovarian lobes were removed and digested in OR-2 calcium-free medium (in mM: 82.5 NaCl, 2.5 KCl, 1.0 MgCl2, 1.0 Na2HPO4, and 10.0 HEPES, pH 7.5) with the addition of 2 mg/ml collagenase (Roche, Indianapolis). Defolliculated oocytes were injected with ENaC cRNAs into the cytosol (25 ng per oocyte in 50 nl of RNase-free water) and incubated in regular OR-2 medium at 18°C. The two-electrode voltage-clamp technique was used to record whole-cell currents 48 h post injection. Oocytes were impaled with two electrodes filled with 3M KCl, having resistance of 0.5 - 2 MΩ. A TEV-200A voltage-clamp amplifier (Dagan) was used to clamp oocytes with concomitant recording of currents. Two reference electrodes were connected to the bath. The continuously perfused bathing solution was ND-96 medium (in mM: 96.0 NaCl, 1.0 MgCl2, 1.8 CaCl2, 2.5 KCl, and 5.0 HEPES, pH 7.5). Whole-cell currents were recorded as previously reported. Experiments were controlled by pCLAMP 10.7 software (Molecular Devices), and currents at -40 mV, -100 mV, and +80 mV were continuously monitored with data recorded at intervals of 10 sec. Data were sampled at the rate of 200 Hz and filtered at 50 Hz.

[4] = α-13 300 μM apical, MTE monolayers, n=6

Molecule N=C(N)NC(=O)c1nc(Cl)c(N)nc1N [amiloride] has a Ki ([1]; Isc, Ussing chamber, amiloride 1 - 1,000 μM, n=5, read-out: ki value (logistic function), δ-ENaC MTE monolayers (converted)) of 3.04 ± 0.26 µM and a Ki ([2]; Isc, Ussing chamber, amiloride 1 - 1,000 μM, n=5, read-out: ki value (logistic function), control MTE monolayers (converted)) of 0.68 µM.

Ac-LRGTLPHPLQRLR-NH2 [α-13 peptide] was tested, and the “α-13 peptide-inhibitable fraction of Isc, δ802-ENaC cells” value [1, 4] was 52%, the “α-13 peptide-inhibitable fraction of Isc, control cells” value [2, 4] was 96% and the “α-13 inhibitable fraction of αβγ-ENaC channels after plasmin / aprotinin pre-treatment” value ([3]; n=8, Figure 3E) was “not significantly affected by fibrinolytic activity”. The IC50 ([3]; oocytes, current at -100 mV, n=4, Chi^2 = 0.44, R^2 = 0.993, read-out: IC50 on αβγ-ENaC channels (Hill equation)) was 0.1 ± 0.01 µM and the “inhibition of human αβγ-ENaC current” value ([3]; α-13 300 μM compared with amiloride 10 μM, -100 mV, subsequent amiloride did not reduce activity further) was “same efficacy as amiloride”.

B1: plasmin: serine protease of the plasmin(ogen) signal pathway for fibrinolysis (protein, UniProt P00747 20-580; P00747 581-810, looked up)
Plasmin heavy chain A: EPLDDYVNTQGASLFSVTKKQLGAGSIEECAAKCEEDEEFTCRAFQYHSKEQQCVIMAENRKSSIIIRMRDVVLFEKKVYLSECKTGNGKNYRGTMSKTKNGITCQKWSSTSPHRPRFSPATHPSEGLEENYCRNPDNDPQGPWCYTTDPEKRYDYCDILECEEECMHCSGENYDGKISKTMSGLECQAWDSQSPHAHGYIPSKFPNKNLKKNYCRNPDRELRPWCFTTDPNKRWELCDIPRCTTPPPSSGPTYQCLKGTGENYRGNVAVTVSGHTCQHWSAQTPHTHNRTPENFPCKNLDENYCRNPDGKRAPWCHTTNSQVRWEYCKIPSCDSSPVSTEQLAPTAPPELTPVVQDCYHGDGQSYRGTSSTTTTGKKCQSWSSMTPHRHQKTPENYPNAGLTMNYCRNPDADKGPWCFTTDPSVRWEYCNLKKCSGTEASVVAPPPVVLLPDVETPSEEDCMFGNGKGYRGKRATTVTGTPCQDWAAQEPHRHSIFTPETNPRAGLEKNYCRNPDGDVGGPWCYTTNPRKLYDYCDVPQCAAPSFDCGKPQVEPKKCPGR
Plasmin light chain B: VVGGCVAHPHSWPWQVSLRTRFGMHFCGGTLISPEWVLTAAHCLEKSPRPSSYKVILGAHQEVNLEPHVQEIEVSRLFLEPTRKDIALLKLSSPAVITDKVIPACLPSPNYVVADRTECFITGWGETQGTFGAGLLKEAQLPVIENKVCNRYEFLNGRVQSTELCAGHLAGGTDSCQGDSGGPLVCFEKDKYILQGVTSWGLGCARPNKPGVYVRVSRFVTWIEGVMRNN
modifications: Plasmin
notes: serine protease of the plasmin(ogen) signal pathway for fibrinolysis
B1 was tested, and the “effect of pre-treatment on αβγ-ENaC activity” value ([3]; oocytes pre-treated, currents at -100 mV, n=5, Figure 3D) was “potentiated”.
